One series deals with recombinant human GALK1 (Homo sapiens, UniProt P51570). In words: hGALK1 biochemical activity assay (Kinase-Glo Plus, ATP depletion). In a few lines:
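Turnover is measured as ATP depletion by Kinase-Glo Plus luminescence after a 1 h room-temperature reaction. Compounds span 11 concentrations, 57.4 μM–0.97 nM, in final 20 mM HEPES pH 8.0 with 5 mM MgCl2. The substrate solution held 35 μM ATP; the added solution held 5 nM human or mouse GALK1 and 100 μM galactose.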

A short description of series [1]: rat microsomal stability (RLM). Particulars: microsomal half-life.
Series [2] can be described thus: aqueous kinetic solubility.
The target of the next series is recombinant mouse GALK1 (Mus musculus, UniProt Q9R0N0). Description: mGALK1 biochemical activity assay (Kinase-Glo Plus, ATP depletion). In a few lines:
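Recombinant GALK1 (5 nM) with 100 μM galactose; GALK1 turnover read as ATP depletion by Kinase-Glo Plus luminescence. Reaction ran 1 h at room temperature before detection reagent was added.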

Where [3] appears, read: recombinant human GALK1, Kinase-Glo Plus ATP depletion, read-out: hGALK.
Setting [4] is: recombinant mouse GALK1, Kinase-Glo Plus ATP depletion, read-out: mGALK.
The mark [5] stands for this setting: Tables 2-15, 35 μM ATP, 100 μM galactose, 1 h, bracketed figure after some values (e.g. −1.2) is undefined and not reported, read-out: hGALK IC50.
[6] abbreviates: Tables 2-15, 35 μM ATP, 100 μM galactose, 1 h, bracketed figure after some values is undefined and not reported, read-out: mGALK IC50.

Molecules are shown by their SMILES. Like-named read-outs stand apart in the source and are kept apart here.

Chain of recombinant human GALK1 (P51570 whole entry): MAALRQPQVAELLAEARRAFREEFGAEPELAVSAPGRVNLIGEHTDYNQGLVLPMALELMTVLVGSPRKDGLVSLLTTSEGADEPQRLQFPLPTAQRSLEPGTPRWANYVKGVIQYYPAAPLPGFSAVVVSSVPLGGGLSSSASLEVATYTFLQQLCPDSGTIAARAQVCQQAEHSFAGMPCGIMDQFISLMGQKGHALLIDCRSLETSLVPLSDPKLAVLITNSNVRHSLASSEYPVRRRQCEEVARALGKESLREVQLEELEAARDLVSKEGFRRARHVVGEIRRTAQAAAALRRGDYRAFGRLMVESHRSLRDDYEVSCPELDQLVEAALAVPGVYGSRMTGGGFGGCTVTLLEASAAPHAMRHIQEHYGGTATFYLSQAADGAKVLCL
Chain of recombinant mouse GALK1 (Q9R0N0 whole entry): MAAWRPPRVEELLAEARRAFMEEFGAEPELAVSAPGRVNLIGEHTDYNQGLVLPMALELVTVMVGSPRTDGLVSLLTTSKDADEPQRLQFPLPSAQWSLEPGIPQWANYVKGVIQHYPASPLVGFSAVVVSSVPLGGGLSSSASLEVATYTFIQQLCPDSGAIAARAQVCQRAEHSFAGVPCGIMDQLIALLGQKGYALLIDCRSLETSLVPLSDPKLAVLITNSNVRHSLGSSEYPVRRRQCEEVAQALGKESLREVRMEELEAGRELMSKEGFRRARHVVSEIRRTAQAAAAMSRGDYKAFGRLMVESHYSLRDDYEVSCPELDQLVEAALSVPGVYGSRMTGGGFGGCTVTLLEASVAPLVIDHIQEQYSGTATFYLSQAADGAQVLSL

With `CC1=C(C(=O)Nc2cc(C(=O)O)ccc2Cl)C(c2ccccc2Cl)N=C(Nc2nc3ccc(F)cc3o2)N1` (stereo not shown) [Compound 29, 4-chloro-3-(4-(2-chlorophenyl)-2-((6-fluorobenzo[d]oxazol-2-yl)amino)-6-methyl-1,4-dihydropyrimidine-5-carboxamido)benzoic acid], the IC50 on recombinant human GALK1 (setting [3]) was determined as 1.54 µM; at recombinant mouse GALK1 (setting [4]) it was 19.3 µM. Moreover, the “Metab. Stabil. (m)” value in series [1] was more than 30 m. The “Sol.” value in series [2] was determined as 54.0 µg/mL. In “PAMPA permeability”, the “Perm. (1 × 10^−6 cm/sec)” value is reported as 29.6 1 × 10^−6 cm/sec.
On the same counts, the results for `CC1=C(C(=O)Nc2cc(C(=O)O)ccc2F)C(c2ccccc2Cl)N=C(Nc2nc3ccc(F)cc3o2)N1` (stereo not shown) [Compound 30, 3-(4-(2-chlorophenyl)-2-((6-fluorobenzo[d]oxazol-2-yl)amino)-6-methyl-1,4-dihydropyrimidine-5-carboxamido)-4-fluorobenzoic acid] are 2.17 µM, 6.85 µM, more than 30 m, 35.7 µg/mL and 2.2 1 × 10^−6 cm/sec.
For `CC1=C(C(=O)Nc2cc(CO)ccn2)C(c2ccccc2Cl)N=C(Nc2nc3ccc(F)cc3o2)N1` (stereo not shown) [Compound 37, 4-(2-chlorophenyl)-2-((6-fluorobenzo[d]oxazol-2-yl)amino)-N-(4-(hydroxymethyl)pyridin-2-yl)-6-methyl-1,4-dihydropyrimidine-5-carboxamide], the IC50 was 3.06 µM on recombinant human GALK1 (setting [5]), 3.06 µM on recombinant human GALK1 (setting [3]), 10.9 µM at recombinant mouse GALK1 (setting [6]) and 10.9 µM on recombinant mouse GALK1 (setting [4]). In addition, the “Metab. Stabil. (m)” value in series [1] is more than 30 m. Also, in series [2], the “Sol.” value was less than 1 µg/mL. Also, the “Perm. (1 × 10^−6 cm/sec)” value in “PAMPA permeability” was 59.9 1 × 10^−6 cm/sec.
In the case of `CC1=C(C(=O)Nc2cc(C(N)=O)ccn2)C(c2ccccc2Cl)N=C(Nc2nc3ccc(F)cc3o2)N1` (stereo not shown) [Compound 38, N-(4-carbamoylpyridin-2-yl)-4-(2-chlorophenyl)-2-((6-fluorobenzo[d]oxazol-2-yl)amino)-6-methyl-1,4-dihydropyrimidine-5-carboxamide], the IC50 on recombinant human GALK1 (setting [5]) came to 4.85 µM; at recombinant human GALK1 (setting [3]) it was 4.85 µM; on recombinant mouse GALK1 (setting [6]), 19.3 µM; at recombinant mouse GALK1 (setting [4]) it was 19.3 µM. The “Metab. Stabil. (m)” value in series [1] was more than 30 m. For the same compound, the “Sol.” value in series [2] was 2.4 µg/mL. In “PAMPA permeability”, the “Perm. (1 × 10^−6 cm/sec)” value is on record as 15.5 1 × 10^−6 cm/sec.
Take `CC1=C(C(=O)Nc2cc(C#N)ccn2)C(c2ccccc2Cl)N=C(Nc2nc3ccc(F)cc3o2)N1` (stereo not shown) [Compound 39, 4-(2-chlorophenyl)-N-(4-cyanopyridin-2-yl)-2-((6-fluorobenzo[d]oxazol-2-yl)amino)-6-methyl-1,4-dihydropyrimidine-5-carboxamide]: the IC50 came to 4.32 µM at recombinant human GALK1 (setting [5]), 4.32 µM on recombinant human GALK1 (setting [3]), 4.85 µM at recombinant mouse GALK1 (setting [6]) and 4.85 µM on recombinant mouse GALK1 (setting [4]). In addition, in series [1], the “Metab. Stabil. (m)” value is more than 30 m. The “Sol.” value in series [2] is less than 1 µg/mL. Moreover, the “Perm. (1 × 10^−6 cm/sec)” value in “PAMPA permeability” is listed as <6.8 1 × 10^−6 cm/sec.
In the case of `CC1=C(C(=O)Nc2ccc(C#N)cn2)C(c2ccccc2Cl)N=C(Nc2nc3ccc(F)cc3o2)N1` (stereo not shown) [Compound 40, 4-(2-chlorophenyl)-N-(5-cyanopyridin-2-yl)-2-((6-fluorobenzo[d]oxazol-2-yl)amino)-6-methyl-1,4-dihydropyrimidine-5-carboxamide], the IC50 on recombinant human GALK1 (setting [3]) and at recombinant mouse GALK1 (setting [4]) was 13.7 µM in each case. The “Metab. Stabil. (m)” value in series [1] was more than 30 m. Moreover, the “Sol.” value in series [2] was less than 1 µg/mL. Also, in “PAMPA permeability”, the “Perm. (1 × 10^−6 cm/sec)” value was <7.8 1 × 10^−6 cm/sec.
Consider `CC1=C(C(=O)Nc2cc(-c3nn[nH]n3)ccn2)C(c2ccccc2Cl)N=C(Nc2nc3ccc(F)cc3o2)N1` (stereo not shown) [Compound 41, N-(4-(2H-tetrazol-5-yl)pyridin-2-yl)-4-(2-chlorophenyl)-2-((6-fluorobenzo[d]oxazol-2-yl)amino)-6-methyl-1,4-dihydropyrimidine-5-carboxamide], for which the IC50 at recombinant human GALK1 (setting [5]) is 0.77 µM; on recombinant human GALK1 (setting [3]), 0.77 µM; on recombinant mouse GALK1 (setting [6]) it was 7.69 µM; at recombinant mouse GALK1 (setting [4]) it was 7.69 µM. Moreover, the “Metab. Stabil. (m)” value in series [1] is given as more than 30 m. In addition, the “Sol.” value in series [2] stood at 29.9 µg/mL. For the same compound, in “PAMPA permeability”, the “Perm. (1 × 10^−6 cm/sec)” value is <1 1 × 10^−6 cm/sec.
On to `CC1=C(C(=O)Nc2ccccn2)C(c2ccccc2Cl)N=C(Nc2nc3ccc(F)cc3o2)N1` (stereo not shown) [Compound 43, 4-(2-chlorophenyl)-2-((6-fluorobenzo[d]oxazol-2-yl)amino)-6-methyl-N-(pyridin-2-yl)-1,4-dihydropyrimidine-5-carboxamide], for which the IC50 at recombinant human GALK1 (setting [3]) stood at 4.32 µM; on recombinant mouse GALK1 (setting [4]) it was 10.9 µM. The “Metab. Stabil. (m)” value in series [1] is more than 30 m. For the same compound, the “Sol.” value in series [2] is less than 1 µg/mL. In addition, the “Perm. (1 × 10^−6 cm/sec)” value in “PAMPA permeability” is 171.11 1 × 10^−6 cm/sec.
As for `CC1=C(C(=O)NCc2cnn(C)c2)C(c2ccccc2Cl)N=C(Nc2nc3ccc(F)cc3o2)N1` (stereo not shown) [Compound 44, 4-(2-chlorophenyl)-2-((6-fluorobenzo[d]oxazol-2-yl)amino)-6-methyl-N-((1-methyl-1H-pyrazol-4-yl)methyl)-1,4-dihydropyrimidine-5-carboxamide], the figures for the IC50 on recombinant human GALK1 (setting [3]) and on recombinant mouse GALK1 (setting [4]) were 1.72 µM and 12.2 µM, respectively. Further, in series [1], the “Metab. Stabil. (m)” value came out at 26 m. Further, in series [2], the “Sol.” value was 13.7 µg/mL. Also, the “Perm. (1 × 10^−6 cm/sec)” value in the series “PAMPA permeability” is recorded as 942.87 1 × 10^−6 cm/sec.
On to `CC1=C(C(=O)Nc2cc(C(=O)O)ccn2)[C@H](c2ccc(C)cc2Cl)N=C(Nc2nc3ccc(F)cc3o2)N1` [Compound 55, (R)-2-(4-(2-chloro-4-methylphenyl)-2-((6-fluorobenzo[d]oxazol-2-yl)amino)-6-methyl-1,4-dihydropyrimidine-5-carboxamido)isonicotinic acid], for which the IC50 at recombinant human GALK1 (setting [5]) was determined as 15 µM; at recombinant human GALK1 (setting [3]), 0.15 µM; on recombinant mouse GALK1 (setting [6]) it was 1.37 µM; at recombinant mouse GALK1 (setting [4]) it was 1.37 µM. Besides, the “Metab. Stabil. (m)” value in series [1] is more than 30 m. Further, in series [2], the “Sol.” value was more than 79 µg/mL. The “Perm. (1 × 10^−6 cm/sec)” value in the series “PAMPA permeability” is <1 1 × 10^−6 cm/sec.
Turning to `CC1=C(C(=O)Nc2cc(C(=O)O)ccn2)[C@@H](c2ccc(C)cc2Cl)N=C(Nc2nc3ccc(F)cc3o2)N1` [Compound 56, (S)-2-(4-(2-chloro-4-methylphenyl)-2-((6-fluorobenzo[d]oxazol-2-yl)amino)-6-methyl-1,4-dihydropyrimidine-5-carboxamido)isonicotinic acid], the IC50 at recombinant human GALK1 (setting [5]) stood at 1.93 µM; at recombinant human GALK1 (setting [3]), 1.93 µM; on recombinant mouse GALK1 (setting [6]), 6.85 µM; on recombinant mouse GALK1 (setting [4]), 6.85 µM. For the same compound, the “Metab. Stabil. (m)” value in series [1] is recorded as more than 30 m. Besides, the “Sol.” value in series [2] was 53.8 µg/mL. Moreover, the “Perm. (1 × 10^−6 cm/sec)” value in “PAMPA permeability” was <1 1 × 10^−6 cm/sec.
With `CC1=C(C(=O)Nc2cc(C(=O)O)ccn2)C(c2ccc(N3CCCC3)cc2Cl)N=C(Nc2nc3ccc(F)cc3o2)N1` (stereo not shown) [Compound 57, 2-(4-(2-chloro-4-(pyrrolidin-1-yl)phenyl)-2-((6-fluorobenzo[d]oxazol-2-yl)amino)-6-methyl-1,4-dihydropyrimidine-5-carboxamido)isonicotinic acid], the IC50 at recombinant human GALK1 (setting [5]) was 1.09 µM; at recombinant human GALK1 (setting [3]), 4.09 µM; on recombinant mouse GALK1 (setting [6]), 10.9 µM; at recombinant mouse GALK1 (setting [4]) it was 10.9 µM. In addition, in series [1], the “Metab. Stabil. (m)” value was more than 30 m. For the same compound, the “Sol.” value in series [2] was more than 87 µg/mL. In addition, in “PAMPA permeability”, the “Perm. (1 × 10^−6 cm/sec)” value was <1 1 × 10^−6 cm/sec.
For `CC1=C(C(=O)Nc2cc(C(=O)O)ccn2)C(c2ccc(N3CCCCC3)cc2Cl)N=C(Nc2nc3ccc(F)cc3o2)N1` (stereo not shown) [Compound 58, 2-(4-(2-chloro-4-(piperidin-1-yl)phenyl)-2-((6-fluorobenzo[d]oxazol-2-yl)amino)-6-methyl-1,4-dihydropyrimidine-5-carboxamido)isonicotinic acid], the IC50 on recombinant human GALK1 (setting [5]) is 1.22 µM; on recombinant mouse GALK1 (setting [6]), 12.2 µM; at recombinant mouse GALK1 (setting [4]), 12.2 µM. The “Metab. Stabil. (m)” value in series [1] is listed as more than 30 m. Moreover, the “Sol.” value in series [2] was 1.92 µg/mL. For the same compound, in the series “PAMPA permeability”, the “Perm. (1 × 10^−6 cm/sec)” value is recorded as 1.35 1 × 10^−6 cm/sec.
With `CC1=C(C(=O)Nc2cc(C(=O)O)ccn2)C(c2ccc(N3CCOCC3)cc2Cl)N=C(Nc2nc3ccc(F)cc3o2)N1` (stereo not shown) [Compound 59, 2-(4-(2-chloro-4-morpholinphenyl)-2-((6-fluorobenzo[d]oxazol-2-yl)amino)-6-methyl-1,4-dihydropyrimidine-5-carboxamido)isonicotinic acid], the IC50 is 0.43 µM at recombinant human GALK1 (setting [3]), 3.85 µM on recombinant mouse GALK1 (setting [6]) and 3.85 µM on recombinant mouse GALK1 (setting [4]). Further, the “Metab. Stabil. (m)” value in series [1] is given as more than 30 m. Besides, the “Sol.” value in series [2] was more than 89 µg/mL. Also, the “Perm. (1 × 10^−6 cm/sec)” value in “PAMPA permeability” is listed as 26.5 1 × 10^−6 cm/sec.
With `CC1=C(C(=O)Nc2cc(C(=O)O)ccn2)C(c2ccc(-n3cccn3)cc2Cl)N=C(Nc2nc3ccc(F)cc3o2)N1` (stereo not shown) [Compound 60, 2-(4-(2-chloro-4-(1H-pyrazol-1-yl)phenyl)-2-((6-fluorobenzo[d]oxazol-2-yl)amino)-6-methyl-1,4-dihydropyrimidine-5-carboxamido)isonicotinic acid], the IC50 is 0.77 µM at recombinant human GALK1 (setting [3]) and 3.43 µM at recombinant mouse GALK1 (setting [4]). Also, the “Metab. Stabil. (m)” value in series [1] was more than 30 m. Besides, in series [2], the “Sol.” value is more than 87 µg/mL. In the series “PAMPA permeability”, the “Perm. (1 × 10^−6 cm/sec)” value is <1 1 × 10^−6 cm/sec.
